Source: article PMC12081876, “Identification of PTGR2 inhibitors as a new therapeutic strategy for diabetes and obesity” (EMBO Molecular Medicine, 2025)
Where “and” joins values, the source holds several entries; their conditions need not be identical. Identical values can stand only once. Blank lines part the entries; values can stand above or below the compound they belong to.

Assays:
[1] = target: T1, mPPARγ C313A (Mus musculus, UniProt P37238, C313A); test: PPRE reporter assay in HEK293T cells, C313A mutant mPPARγ; type: cell-based, murine; parameters: key to PPRE reporter activity, Fig 1M replicates: luciferase activity normalized to TK reporter signal; conditions: for PPRE reporter activity, Fig 1M replicates: PPARg C313A
T1 construct: host or cells: HEK293T
T1 sequence (P37238 1-505 C313A): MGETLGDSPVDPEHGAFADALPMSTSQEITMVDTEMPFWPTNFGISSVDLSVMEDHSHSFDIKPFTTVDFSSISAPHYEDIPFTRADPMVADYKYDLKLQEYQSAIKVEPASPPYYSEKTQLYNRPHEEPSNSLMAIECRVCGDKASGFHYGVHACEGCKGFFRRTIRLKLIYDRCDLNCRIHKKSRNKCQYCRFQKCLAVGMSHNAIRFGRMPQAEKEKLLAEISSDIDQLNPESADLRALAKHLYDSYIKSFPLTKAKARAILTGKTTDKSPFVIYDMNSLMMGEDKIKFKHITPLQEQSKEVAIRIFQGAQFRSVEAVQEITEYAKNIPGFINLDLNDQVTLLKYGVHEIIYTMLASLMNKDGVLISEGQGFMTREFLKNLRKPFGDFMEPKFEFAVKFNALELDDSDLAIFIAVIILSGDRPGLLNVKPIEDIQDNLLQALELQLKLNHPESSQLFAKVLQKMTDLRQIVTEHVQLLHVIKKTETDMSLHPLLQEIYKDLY
Procedure: For PPRE reporter assay, HEK293T cells were seeded in 24-well plates at 1 × 10^5 cells/well. […] The luciferase activity was measured by Luc-Pair™ Duo-Luciferase HS Assay Kit (cat. no. LF600, Promega, USA) and normalized to the TK reporter signal.

[2] = tested on: PPARγ-null 3T3-L1 clones rescued with mutant mPPARγ (C313A); test: Insulin-stimulated glucose uptake in PPARγ-null 3T3-L1 clones rescued with mutant mPPARγ (C313A); type: cell-based, mouse; conditions: for insulin-stimulated glucose uptake, Fig 1P right panel replicates: rescued with mPPARγ C313A
Procedure: Gene editing was performed in 3T3-L1 preadipocytes using the clustered regularly interspaced short palindromic repeats (CRISPR)/Cas9 system. Two single-guide RNAs (sgRNA) (Appendix Table S5) targeting exon 6 of mouse Pparγ were designed using a web-based design tool (http://crispr.mit.edu/). These oligonucleotides were cloned into the pSurrogate reporter and pAll-Cas9.Ppuro vector obtained from Academia Sinica, Taiwan. The pSurrogate reporter contains an EGFP and an out-of-frame mCherry downstream of the sgRNA; the pAll-Cas9.Ppuro vector expresses Cas9 nuclease and sgRNA. Once a double-strand breaking at the target site in pSurrogate reporter plasmid was created by Cas9, insertions and deletions (indels) could be introduced at the cleaved site. The indels cause frameshifts and result in the expression of the mCherry gene. 3T3-L1 preadipocytes were co-transfected with pSurrogate reporter and pAll-Cas9.Ppuro vectors at 80-90% confluency using PolyJet™ transfection reagent (cat. no. SL100688, SignaGen Laboratories, USA). Two days after transfection, EGFP/mCherry double-positive cells were enriched by fluorescent-activated cell sorting. Single cells were isolated and expanded. The genomic DNA was amplified by PCR and sequenced to confirm the knockout cell lines. The primer sequences are shown in Appendix Table S5.
The mPPARγ C313A DNA sequence was amplified from pCMV6-Pparg C313A and subcloned into the pLVX-IRES-Neo vector with XhoI/NotI restriction sites. The lentiviral expression plasmids, pMD.G, and pCMVΔR8.91 (RNAi Core, Academia Sinica, Taiwan), were co-transfected into HEK293T cells. […] HSP70 was probed with an anti-HSP70 antibody (cat. no. ab45133, Abcam) as a loading control.
Differentiated 3T3-L1 cells were starved with serum-free DMEM containing 0.2% BSA (cat. no. A9647, Sigma-Aldrich). […] Uptake of 2DG was terminated by rapidly removing medium and washing with ice-cold PBS three times. Cells were lysed with 0.1% SDS, and the radioactivity was measured using a liquid scintillation counter. Insulin-mediated glucose uptake was calculated by subtracting insulin-treated glucose uptake with basal glucose uptake.

[3] = tested on: HFHSD-fed obese C57BL6/J mice; test: Tissue weights (fat pads, liver, BAT); type: in vivo, mouse
[4] = tested on: HFHSD-fed obese C57BL6/J mice; test: Body composition (fat mass, lean mass, free water, total water); type: in vivo, mouse; conditions: 40 mg/kg/day ip, HFHSD-fed mice
[5] = target: hPTGR2 (Homo sapiens, UniProt Q8N8N7); test: Enzyme kinetics (Lineweaver–Burk) of hPTGR2 with 15-keto-PGE2; type: biochemical; parameters: made in house; conditions: read-out: Km between 15-keto-PGE2 and hPTGR2; without BPRPT0245
hPTGR2, sequence (Q8N8N7 whole entry): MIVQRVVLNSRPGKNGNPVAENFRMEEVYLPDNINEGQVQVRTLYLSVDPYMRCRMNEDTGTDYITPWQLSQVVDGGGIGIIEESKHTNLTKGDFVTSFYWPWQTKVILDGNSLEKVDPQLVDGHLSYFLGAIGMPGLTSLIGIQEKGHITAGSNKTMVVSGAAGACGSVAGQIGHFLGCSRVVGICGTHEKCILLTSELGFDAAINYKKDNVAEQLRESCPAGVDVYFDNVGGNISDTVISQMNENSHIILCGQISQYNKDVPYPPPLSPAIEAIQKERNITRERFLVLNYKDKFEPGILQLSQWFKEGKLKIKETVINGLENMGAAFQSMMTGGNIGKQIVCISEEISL

[6] = Figure 2J, individual mice, listed as 15kPGE2, in g (unit assumed)

PPRE reporter activity, Fig 1M replicates ([1]; 1314dh-15kPGE2 5uM): 1.0835 and 0.6291 and 0.9127 | PPRE reporter activity, Fig 1M replicates ([1]; 1314dh-15kPGE2 10uM): 0.8254 and 0.8511 and 0.9733
SMILES: CCCCCC(=O)CC[C@H]1[C@H](O)CC(=O)[C@@H]1C/C=C\CCCC(=O)O [13,14-dihydro-15-keto-PGE2]
insulin-stimulated glucose uptake, Fig 1P right panel replicates ([2]; 1314-dihydro-15kPGE2 5): 1.243 and 2.598 and 0.703

PPRE reporter activity, Fig 1M replicates ([1]; 15kPGE2 1uM): 1.1721 and 1.0341 and 1.1068 | PPRE reporter activity, Fig 1M replicates ([1]; 15kPGE2 5uM): 0.9678 and 0.853 and 0.9258 | PPRE reporter activity, Fig 1M replicates ([1]; 15kPGE2 10uM): 0.6267 and 0.6796 and 0.8917 | PPRE reporter activity, mutant mPPARγ (C313A) ([1]; HEK293T): abolished | fluid retention (body composition) ([4]; 3 weeks, vs vehicle): without fluid retention | Km [5]: 29.1 ± 0.77 µM
SMILES: CCCCCC(=O)/C=C/[C@H]1[C@H](O)CC(=O)[C@@H]1C/C=C\CCCC(=O)O [15-keto-PGE2, 15-keto-prostaglandin E2]
insulin-stimulated glucose uptake, Fig 1P right panel replicates ([2]; 15kPGE2 1): 0.9792 and 1.801 and 3.6878 and 1.466 | insulin-stimulated glucose uptake, Fig 1P right panel replicates ([2]; 15kPGE2 5): 0.4664 and 1.615 and 2.026 and 0.6338 | insulin-stimulated glucose uptake, Fig 1P right panel replicates ([2]; 15kPGE2 10): 0.2762 and 1.684 and 2.97 and 1.874 | insulin-stimulated glucose uptake, PPARγ-null clone rescued with mutant mPPARγ (C313A) ([2]; clone #1296): not when rescued with mutant mPPARγ (C313A) | White fat mass ([3]; 40 mg/kg/day ip, 3 weeks, HFHSD-fed mice, vs vehicle): reduced | BAT weight [3, 6]: 0.1049 and 0.0893 and 0.0681 and 0.1024 and 0.0901 and 0.0904 and 0.0815 and 0.0934 and 0.1303 and 0.0871 and 0.1289 and 0.0981 and 0.1279 | gonadal fat weight [3, 6]: 1.0948 and 0.4418 and 0.5418 and 0.586 and 0.6631 and 0.6417 and 0.7873 and 0.8763 and 0.4217 and 0.3751 and 0.7101 and 0.437 and 1.2399 and 1.5271 | inguinal fa (inguinal fat weight) [3, 6]: 0.5361 and 0.3262 and 0.2899 and 0.5695 and 0.44 and 0.4775 and 0.4155 and 0.4527 and 0.3306 and 0.2941 and 0.47 and 0.5739 and 0.6454 and 0.6994 | liver weight [3, 6]: 1.4646 and 1.5001 and 1.364 and 1.198 and 1.291 and 1.4569 and 1.3602 and 1.5387 and 1.535 and 1.2853 and 1.4911 and 1.7319 and 1.4367 and 1.4078 | mesneteric fat weight [3, 6]: 0.4239 and 0.1584 and 0.1617 and 0.203 and 0.2549 and 0.1777 and 0.3522 and 0.3152 and 0.191 and 0.1812 and 0.1041 and 0.3498 and 0.3664 and 0.5006 | body composition: fat mass ([4]; 3 weeks, vs vehicle): reduced fat mass | fat mass, Fig 2K, per mouse ([4]; listed as 15kPGE2): 5.32 and 2.67 and 2.477 and 3.3 and 3.197 and 3.02 and 3.75 and 4.29 and 2.763 and 2.153 and 4.333 and 4.837 and 5.383 and 6.203 | free water, Fig 2K, per mouse ([4]; listed as 15kPGE2): 2.353 and 2.46 and 2.333 and 2.08 and 2.14 and 2.517 and 2.187 and 2.62 and 2.42 and 2.197 and 2.23 and 2.307 and 2.467 | lean mass, Fig 2K, per mouse ([4]; listed as 15kPGE2): 21.65 and 22.52 and 23.3767 and 19.74 and 20.2767 and 20.98 and 21.1733 and 22.3667 and 21.9633 and 21.94 and 20.5267 and 22.2733 and 21.2733 and 21.61 | total water, Fig 2K, per mouse ([4]; listed as 15kPGE2, in g (unit assumed)): 19.6733 and 20.4733 and 21.0367 and 17.8733 and 18.36 and 19.3 and 19.1267 and 20.5133 and 19.99 and 19.7467 and 18.65 and 20.1267 and 19.4833 and 19.7567
